Patent US9073855B2, “BCL-2 selective apoptosis-inducing agents for the treatment of cancer and immune diseases” (AbbVie Inc., priority 2008, dated 2015)

Legend:
[1] = target: GST-Bcl-2 (Homo sapiens, UniProt P10415); assay: TR-FRET binding assay, GST-Bcl-2 with F-Bak peptide probe; conditions: for Ki: TR-FRET Binding Affinity, GST-Bcl-2, F-Bak peptide probe
Summary of the method: (§1)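 Displacement of a fluorescein-labelled Bak peptide from the GST-tagged protein was followed by time-resolved FRET with a terbium anti-GST donor after 3 h incubation at room temperature. Inhibition constants were calculated with Wang's equation.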

[2] = test system: FL5.12/Bcl-2 cells; assay: FL5.12/Bcl-2 cell viability assay under IL-3 withdrawal (CellTitre Glo); type: cell-based, murine; conditions: Mus musculus, IL-3 withdrawn 48 hrs, then 24 hrs with compound
Summary of the method: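 Murine IL-3-dependent FL5.12 cells stably overexpressing Bcl-2 were deprived of IL-3 (WEHI-3B conditioned medium) for 48 h, then exposed to various compound concentrations for 24 h at 37 °C. Viability read by CellTiter-Glo luminescence.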

[3] = target: GST-Bcl-XL (Homo sapiens, UniProt Q07817); assay: TR-FRET binding assay, GST-Bcl-XL with F-Bak peptide probe; conditions: TR-FRET Binding Affinity, GST-Bcl-XL, F-Bak peptide probe
Summary of the method: as §1

Sequence of GST-Bcl-2 (P10415 whole entry): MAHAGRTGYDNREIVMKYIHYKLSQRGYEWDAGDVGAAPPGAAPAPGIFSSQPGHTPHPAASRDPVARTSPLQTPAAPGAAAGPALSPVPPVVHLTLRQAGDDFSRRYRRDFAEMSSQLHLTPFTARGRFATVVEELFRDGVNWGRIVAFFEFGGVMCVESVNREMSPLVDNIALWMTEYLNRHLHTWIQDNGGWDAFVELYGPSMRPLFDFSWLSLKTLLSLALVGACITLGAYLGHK
Sequence of GST-Bcl-XL (Q07817 whole entry): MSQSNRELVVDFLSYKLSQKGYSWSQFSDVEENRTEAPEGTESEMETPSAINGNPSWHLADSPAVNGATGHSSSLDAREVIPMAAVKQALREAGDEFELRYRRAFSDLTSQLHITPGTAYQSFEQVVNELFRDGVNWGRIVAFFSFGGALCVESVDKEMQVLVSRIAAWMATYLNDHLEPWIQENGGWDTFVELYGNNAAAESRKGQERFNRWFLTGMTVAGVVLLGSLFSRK

Structure (SMILES)	Ki [1] [nM]	EC50 [2] [nM]	Ki [3] [nM]	Binding selectivity ratio (Bcl-XL Ki/Bcl-2 Ki) ([1]; ratio of TR-FRET Ki values, Bcl-XL over Bcl-2)
CC1(C)CCC(CN2CCN(c3ccc(C(=O)NS(=O)(=O)c4ccc(NC5CCN(CCO)CC5)c([N+](=O)[O-])c4)c(Oc4cccc5[nH]ccc45)c3)CC2)=C(c2ccc(Cl)cc2)C1 [Example 191, 4-(4-{[2-(4-chlorophenyl)-4,4-dimethylcyclohex-1-en-1-yl]methyl}piperazin-1-yl)-N-[(4-{[1-(2-hydroxyethyl)piperidin-4-yl]amino}-3-nitrophenyl)sulfonyl]-2-(1H-indol-4-yloxy)benzamide]	0.073	11.7	9.16	–
CC1(C)CCC(CN2CCN(c3ccc(C(=O)NS(=O)(=O)c4cnc(OCC5CCOCC5)c(C#N)c4)c(Oc4cccc5[nH]ccc45)c3)CC2)=C(c2ccc(Cl)cc2)C1 [Example 386, 4-(4-{[2-(4-chlorophenyl)-4,4-dimethylcyclohex-1-en-1-yl]methyl}piperazin-1-yl)-N-{[5-cyano-6-(tetrahydro-2H-pyran-4-ylmethoxy)pyridin-3-yl]sulfonyl}-2-(1H-indol-4-yloxy)benzamide]	0.239	154	118	–
CC1(C)CCC(CN2CCN(c3ccc(C(=O)NS(=O)(=O)c4ccc(NCC5CCOCC5)c([N+](=O)[O-])c4)c(Oc4cccc5[nH]ccc45)c3)CC2)=C(c2ccc(Cl)cc2)C1 [Example 244, 4-(4-{[2-(4-chlorophenyl)-4,4-dimethylcyclohex-1-en-1-yl]methyl}piperazin-1-yl)-2-(1H-indol-4-yloxy)-N-({3-nitro-4-[(tetrahydro-2H-pyran-4-ylmethyl)amino]phenyl}sulfonyl)benzamide]	0.16	20.2	> 660	–
CC1(C)CCC(CN2CCN(c3ccc(C(=O)NS(=O)(=O)c4ccc(OCCC5CCOCC5)c([N+](=O)[O-])c4)c(Oc4cccc5[nH]ccc45)c3)CC2)=C(c2ccc(Cl)cc2)C1 [Example 314, 4-(4-{[2-(4-chlorophenyl)-4,4-dimethylcyclohex-1-en-1-yl]methyl}piperazin-1-yl)-2-(1H-indol-4-yloxy)-N-{[3-nitro-4-(2-tetrahydro-2H-pyran-4-ylethoxy)phenyl]sulfonyl}benzamide]	3.07	240	> 660	–
CC1(C)CCC(CN2CCN(c3ccc(C(=O)NS(=O)(=O)c4cnc(OCC5(F)CCOCC5)c(C(F)(F)F)c4)c(Oc4cccc5[nH]ncc45)c3)CC2)=C(c2ccc(Cl)cc2)C1 [Example 410, 4-(4-{[2-(4-chlorophenyl)-4,4-dimethylcyclohex-1-en-1-yl]methyl}piperazin-1-yl)-N-{[6-[(4-fluorotetrahydro-2H-pyran-4-yl)methoxy]-5-(trifluoromethyl)pyridin-3-yl]sulfonyl}-2-(1H-indazol-4-yloxy)benzamide]	0.055	13.9	102	–
CN1CCC(Nc2ccc(S(=O)(=O)NC(=O)c3ccc(N4CCN(CC5=C(c6ccc(Cl)cc6)CC(C)(C)CC5)CC4)c(F)c3Oc3ccc4[nH]ccc4c3)cc2[N+](=O)[O-])CC1 [Example 184, 4-(4-{[2-(4-chlorophenyl)-4,4-dimethylcyclohex-1-en-1-yl]methyl}piperazin-1-yl)-3-fluoro-2-(1H-indol-5-yloxy)-N-({4-[(1-methylpiperidin-4-yl)amino]-3-nitrophenyl}sulfonyl)benzamide]	0.281	27	> 660	–
CC1(C)CCC(CN2CCN(c3ccc(C(=O)NS(=O)(=O)c4ccc(NCC5CCOCC5)c(C#N)c4)c(Oc4ccc5[nH]ccc5c4)c3)CC2)=C(c2ccc(Cl)cc2)C1 [Example 367, 4-(4-{[2-(4-chlorophenyl)-4,4-dimethylcyclohex-1-en-1-yl]methyl}piperazin-1-yl)-N-({3-cyano-4-[(tetrahydro-2H-pyran-4-ylmethyl)amino]phenyl}sulfonyl)-2-(1H-indol-5-yloxy)benzamide]	4.61	> 500	> 660	–
CC1(C)CCC(CN2CCN(c3ccc(C(=O)NS(=O)(=O)c4ccc(NCCN5CCNC(=O)C5)c([N+](=O)[O-])c4)c(Oc4ccc5[nH]ccc5c4)c3)CC2)=C(c2ccc(Cl)cc2)C1 [Example 273, 4-(4-{[2-(4-chlorophenyl)-4,4-dimethylcyclohex-1-en-1-yl]methyl}piperazin-1-yl)-2-(1H-indol-5-yloxy)-N-[(3-nitro-4-{[2-(3-oxopiperazin-1-yl)ethyl]amino}phenyl)sulfonyl]benzamide]	0.076	70	181	–
CC1(C)CCC(CN2CCN(c3ccc(C(=O)NS(=O)(=O)c4cnc(NCC5CCOCC5)c(Br)c4)c(Oc4ccc5[nH]ccc5c4)c3)CC2)=C(c2ccc(Cl)cc2)C1 [Example 350, N-({5-bromo-6-[(tetrahydro-2H-pyran-4-ylmethyl)amino]pyridin-3-yl}sulfonyl)-4-(4-{[2-(4-chlorophenyl)-4,4-dimethylcyclohex-1-en-1-yl]methyl}piperazin-1-yl)-2-(1H-indol-5-yloxy)benzamide]	5.97	311	> 660	–
CC1(C)CCC(CN2CCN(c3ccc(C(=O)NS(=O)(=O)c4ccc(NN5CCCCC5)c([N+](=O)[O-])c4)c(Oc4cccc5[nH]ccc45)c3)CC2)=C(c2ccc(Cl)cc2)C1 [Example 283, 4-(4-{[2-(4-chlorophenyl)-4,4-dimethylcyclohex-1-en-1-yl]methyl}piperazin-1-yl)-2-(1H-indol-4-yloxy)-N-{[3-nitro-4-(piperidin-1-ylamino)phenyl]sulfonyl}benzamide]	47.5	> 500	> 660	–
CC(c1ccccc1-c1ccc(Cl)cc1)N1CCN(c2ccc(C(=O)NS(=O)(=O)c3ccc(NN4CCN(C)CC4)c([N+](=O)[O-])c3)c(Oc3cccc4[nH]ccc34)c2)CC1 (stereo not shown) [Example 217, 4-{4-[1-(4′-chloro-1,1′-biphenyl-2-yl)ethyl]piperazin-1-yl}-2-(1H-indol-4-yloxy)-N-({4-[(4-methylpiperazin-1-yl)amino]-3-nitrophenyl}sulfonyl)benzamide]	0.262	20.8	44.8	–
CC1(C)CCC(CN2CCN(c3ccc(C(=O)NS(=O)(=O)c4ccc(NCC5CCOCC5)c([N+](=O)[O-])c4)c(Oc4cccc5c4CCNC5)c3)CC2)=C(c2ccc(Cl)cc2)C1 [Example 399, 4-(4-{[2-(4-chlorophenyl)-4,4-dimethylcyclohex-1-en-1-yl]methyl}piperazin-1-yl)-N-({3-nitro-4-[(tetrahydro-2H-pyran-4-ylmethyl)amino]phenyl}sulfonyl)-2-(1,2,3,4-tetrahydroisoquinolin-5-yloxy)benzamide]	2.92	> 500	> 660000	>225764.5
CC1(C)CCC(CN2CCN(c3ccc(C(=O)NS(=O)(=O)c4ccc(NC5CCN(CC6CC6)CC5)c([N+](=O)[O-])c4)c(Oc4ccc5[nH]ccc5c4)c3)CC2)=C(c2ccc(Cl)cc2)C1 [Example 214, 4-(4-{[2-(4-chlorophenyl)-4,4-dimethylcyclohex-1-en-1-yl]methyl}piperazin-1-yl)-N-[(4-{[1-(cyclopropylmethyl)piperidin-4-yl]amino}-3-nitrophenyl)sulfonyl]-2-(1H-indol-5-yloxy)benzamide]	0.082	15.7	64	–
